The first assay addresses T1, FPR1 (UniProt P21462).
T1 sequence (P21462 1-350): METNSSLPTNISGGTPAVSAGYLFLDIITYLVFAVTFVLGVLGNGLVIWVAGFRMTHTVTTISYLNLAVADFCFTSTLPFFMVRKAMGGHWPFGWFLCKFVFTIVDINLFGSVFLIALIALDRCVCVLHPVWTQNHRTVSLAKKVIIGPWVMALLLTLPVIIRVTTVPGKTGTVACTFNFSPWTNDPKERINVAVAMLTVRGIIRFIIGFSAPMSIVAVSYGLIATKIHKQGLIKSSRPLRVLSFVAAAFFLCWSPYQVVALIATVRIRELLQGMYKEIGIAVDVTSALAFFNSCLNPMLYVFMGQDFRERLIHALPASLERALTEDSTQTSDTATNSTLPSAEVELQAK
Nature of the assay: fMLP-FPR1 mediated calcium signaling assay in FPR1-overexpressing 293T cells. The class given is cell-based, human or mouse. The note with it: inhibition of fMLP-FPR1 mediated intracellular calcium change; hFPR1 or mFPR1 overexpressing 293T cells; 10 min preincubation; INDO-1 AM, FACS. Here is the method:
The effects of the compounds of this disclosure on regulating the FPR1-mediated cell signaling were measured by monitoring the cellular calcium level change, as illustrated by the exemplary examples in Table 2. The dose response of the illustrated examples are reported categorically using the following ranking criteria: *** (IC50≤100 nM); ** (IC50≥100 to ≤1000 nM); * (IC50≥1000 to ≤10,000 nM); N.D.—not detected.
The coding DNA sequence (CDS) of human FPR1 (NM_001193306) and mouse FPR1 (NM_013521) were cloned and inserted to the lentivirus vector GV367 (Vector information:http://www.genechem.com.cn/index/supports/tool_search.html?keywords=GV367) under the conduction of pCMV promoter. 293T cells were cultured in H-DMEM supplemented with 10% FBS and 1% penicillin-streptomycin (PS) at 37° C. in 5% CO2 Incubator. 293T cells were transfected with lentivirus vector GV367 containing the CDS of human or mouse FPR1 for 24 h and then cultured with complete medium for another 48 h. At 72 h after transfected, cells were passaged, and 5 μg/ml puromycin was added to screen FPR1-transfected 293T cells. The overexpression of human or mouse FPR1 in 293 T cells were detected by immunostaining with anti-mouse or human FPR1 antibodies (Biolegend or Antibody Online).
Cultured hFPR1 or mFPR1 overexpressing 293T cells were labeled with 1 μM INDO-1 AM calcium sensor dye (eBioscience) for 30 min at 37° C. After washed with 1×PBS, cells were resuspended with H-DMEM containing 3% FBS, and were maintained on ice prior to the measurement of intracellular calcium concentration. To measure the inhibitory potency of designed potential FPR1 antagonists, hFPR1 or mFPR1 overexpressing 293T cells were incubated with the compound for 10 min at room temperature. The cytoplasmic calcium levels were then measured by FACS Aria III at 37° C. prior to and after the stimulation of fMLP. We defined the immunofluorescence intensity of indo-1 AM before adding fMLP as the basal value, and the intensity at the peak immunofluorescence reduction after adding fMLP as minimum value for each sample. The change of intracellular calcium was calculated as follow: (basal value−minimum value)/basal value×100%. The IC50 of each compound in inhibiting fMLP-FPR1 mediated intracellular calcium concentration in 293T cells were automatically calculated with Prism 8.0.2 software (GraphPad) after inputting a series of change of intracellular calcium at multiple concentration gradients (from 0 nM to 100 μM).
Consider `O=C1c2n[nH]c(-c3cc(Cl)ccc3O)c2C(c2ccc(C(F)(F)F)cc2)N1C1CCOCC1` (racemic) [Compound 9, Rac-3-(5-chloro-2-hydroxyphenyl)-5-(tetrahydro-2H-pyran-4-yl)-4-(4-(trifluoromethyl)phenyl)-4,5-dihydropyrrolo[3,4-c]pyrazol-6(2H)-one], for which the IC50 was in the range of 100 to 1000 nM.

As for `Cc1ccc(O)c(-c2[nH]nc3c2[C@@H](c2ccc(C(F)(F)F)cc2)N(C2CCOCC2)C3=O)c1` (single isomer, unassigned) [Compound 3], the IC50 was in the range of 1000 to 10000 nM.

Regarding `O=C1c2n[nH]c(-c3ccccn3)c2C(c2ccc(Cl)cc2)N1C1CCOCC1` (racemic) [Compound 14, Rac-4-(4-chlorophenyl)-3-(pyridin-2-yl)-5-(tetrahydro-2H-pyran-4-yl)-4,5-dihydropyrrolo[3,4-c]pyrazol-6(2H)-one], the IC50 lay in the range of 1000 to 10000 nM.

With `COC1CCC(N2C(=O)c3n[nH]c(-c4cc(C)ccc4O)c3C2c2ccc(C(F)(F)F)cc2)CC1` (racemic) [Compound 8, Rac-3-(2-hydroxy-5-methylphenyl)-5-((1r,4r)-4-methoxycyclohexyl)-4-(4-(trifluoromethyl)phenyl)-4,5-dihydropyrrolo[3,4-c]pyrazol-6(2H)-one], the IC50 was in the range of 1000 to 10000 nM.

On to `O=C1c2n[nH]c(-c3cc(F)ccc3O)c2C(c2ccc(C(F)(F)F)cc2)N1C1CCOCC1` (racemic) [Compound 13, rac-3-(5-fluoro-2-hydroxyphenyl)-5-(tetrahydro-2H-pyran-4-yl)-4-(4-(trifluoromethyl)phenyl)-4,5-dihydropyrrolo[3,4-c]pyrazol-6(2H)-one], for which the IC50 lay in the range of 1000 to 10000 nM.

Turning to `CC(=O)N1CCC(N2C(=O)c3n[nH]c(-c4cc(C)ccc4O)c3C2c2ccc(C(F)(F)F)cc2)CC1` (racemic) [Compound 5, Rac-5-(1-acetylpiperidin-4-yl)-3-(2-hydroxy-5-methylphenyl)-4-(4-(trifluoromethyl)phenyl)-4,5-dihydropyrrolo[3,4-c]pyrazol-6(2H)-one], the IC50 fell in the range of 100 to 1000 nM.

In the case of `CO[C@H]1CC[C@@H](N2C(=O)c3n[nH]c(-c4cc(C)ccc4O)c3C2c2ccc(C(F)(F)F)cc2)CC1` (mixture of isomers) [Compound 7, rac-3-(2-hydroxy-5-methylphenyl)-5-((1S,4S)-4-methoxycyclohexyl)-4-(4-(trifluoromethyl)phenyl)-4,5-dihydropyrrolo[3,4-c]pyrazol-6(2H)-one], the IC50 is 1000 to 10000 nM.

With `O=C1c2n[nH]c(-c3cc(F)ccc3O)c2C(c2ccc(Cl)cc2)N1C1CCOCC1` (racemic) [Compound 10, Rac-4-(4-chlorophenyl)-3-(5-fluoro-2-hydroxyphenyl)-5-(tetrahydro-2H-pyran-4-yl)-4,5-dihydropyrrolo[3,4-c]pyrazol-6(2H)-one], the IC50 lay in the range of 1000 to 10000 nM.

In the case of `O=C1c2n[nH]c(-c3cc(F)ccc3O)c2[C@@H](c2ccc(Cl)cc2)N1C1CCOCC1` (single isomer, unassigned) [Compound 12], the IC50 is 1000 to 10000 nM.

Regarding `Cc1ccc(O)c(-c2[nH]nc3c2C(c2ccc(C(F)(F)F)cc2)N(C2CCNCC2)C3=O)c1` (racemic) [Compound 4, Rac-3-(2-hydroxy-5-methylphenyl)-5-(piperidin-4-yl)-4-(4-(trifluoromethyl)phenyl)-4,5-dihydropyrrolo[3,4-c]pyrazol-6(2H)-one], the IC50 lay within 1000 to 10000 nM.

Consider `Cc1ccc(O)c(-c2[nH]nc3c2[C@H](c2ccc(C(F)(F)F)cc2)N(C2CCOCC2)C3=O)c1` (single isomer, unassigned) [Compound 2], for which the IC50 is 100 to 1000 nM.

`O=C1c2n[nH]c(-c3cc(F)ccc3O)c2[C@H](c2ccc(Cl)cc2)N1C1CCOCC1` (single isomer, unassigned) [Compound 11]: the IC50 lay within 1000 to 10000 nM.

The next assay relates to ICH mice. The assay is described as follows: MRI lesion, hematoma and perihematomal edema volume in intracerebral hemorrhage (ICH) mouse model. The class given is in vivo. The note with it: at 3 days after ICH, brain MRI, vs vehicle. From the text:
The intracerebral hemorrhage (ICH) model in mice was used to illustrate the protective benefits of the compounds of this disclosure, and FIG. 1 depicts the procedure in preparing this model. ICH was induced in C57 B/L6 male mice by the injection of an autologous blood or collagenase as previously described (Lauer et al., Circulation 124: 1654-1662 (2011); Rynkowski et al., Nat. Protoc. 3:122-128 (2008)). Mice were anesthetized using isoflurane inhalation and fixed on a stereotactic frame. A burr hole was drilled on the right side of the skull at 2.3 mm lateral to the midline and 0.5 mm anterior to the bregma. For the autologous blood model, 30 μl of non-heparinized blood was withdrawn from the angular vein. The first 5 μl blood was injected at a depth of 3 mm beneath the hole, and the rest 25 μl blood were injected at 3.7 mm beneath the hole with a rate of 1 μl/min. In the collagenase model, 0.038 U of the bacterial collagenase (in 0.5 μl saline) was infused to the striatum (0.5 mm anterior, 2.3 mm right lateral, and 3.5 mm deep relative to bregma) at a speed of 0.5 μl/min. Mice on the sham control were injected with an equal volume of saline. Throughout the procedure, the body temperature was maintained at 37° C. with a homeothermic blanket. After the surgery, mice were under observation with free access to food and water. […]
The total lesion volume was measured on the 7T small-animal MM scanner (Bruker, Corp., USA) as described (Li et al., 2017). The T2-weighted water imaging was recorded with following parameters (repetition time (TR)=4500 ms, echo time (TE)=65.5 ms, field of view (FOV)=28×28 mm^2, image matrix=256×256, at 0.5-mm slice thickness). […] The volumes were manually outlined and calculated by multiplying the sum of the volume by the distance between sections (0.5 mm) using MIPAV software. PHE volumes were calculated as total lesion volume minus hematoma volume. MRI data were analyzed by two investigators blinded to experimental groups.
Regarding `O=C1c2n[nH]c(-c3ccccn3)c2C(c2ccc(Cl)cc2)N1C1CCOCC1` (racemic) [Comp14], the peri-hematomal edema result was “significantly reduced”.

Staying with this assay, now noted: brain MRI, vs vehicle.
For the molecule `O=C1c2n[nH]c(-c3ccccn3)c2C(c2ccc(Cl)cc2)N1C1CCOCC1` (racemic) [Comp14], the hematoma size entry is listed as “no difference”.

(Values after US20240109897A1, “MODULATORS OF FPR1 AND METHODS OF USING THE SAME” (BEIJING TIANTAN HOSPITAL, priority 2021, published 2024).)
